Experimental findings from ChEMBL document CHEMBL3046083, “Synthesis, characterization and antimicrobial evaluation of novel derivatives of isoniazid” (2012) are described below.

What all share (format): functional
The subject of assay [1] is Pseudomonas aeruginosa. In words: Antimicrobial activity against Pseudomonas aeruginosa ATCC […] after 24 hr by broth dilution method.
For assay [2], the system named is Pseudomonas aeruginosa. As to the kind of experiment: Antimicrobial activity against Pseudomonas aeruginosa ATCC […] at 50 ug/ml after 24 to 48 hr by agar diffusion method. The settings on record: read-out: DIZ.
The test system of assay [3] is Bacillus subtilis. In words: Antimicrobial activity against Bacillus subtilis ATCC […] after 24 hr by broth dilution method. (In general: Dilution methods test growth across graded concentrations, often in twofold steps.)
In assay [4] the test system is Staphylococcus aureus. As to the kind of experiment: Antimicrobial activity against Staphylococcus aureus ATCC 29213 after 24 hr by broth dilution method. The settings on record: ATCC 29213, 24 h.
The test system of assay [5] is Bacillus subtilis. In words: Antimicrobial activity against Bacillus subtilis ATCC […] at 50 ug/ml after 24 to 48 hr by agar diffusion method. The conditions noted are these: read-out: DIZ.
Assay [6] deals with Escherichia coli. In words: Antimicrobial activity against Escherichia coli ATCC 25922 at 50 ug/ml after 24 to 48 hr by agar diffusion method. The conditions noted are these: read-out: DIZ.
Assay [7] deals with Staphylococcus aureus. In words: Antimicrobial activity against Staphylococcus aureus ATCC 29213 at 50 ug/ml after 24 to 48 hr by agar diffusion method. The conditions noted are these: read-out: DIZ. On the technique in general: A growth-free zone around the sample is the usual read-out of agar diffusion tests.
For assay [8], the system named is Escherichia coli. In words: Antimicrobial activity against Escherichia coli ATCC 25922 after 24 hr by broth dilution method. The settings on record: ATCC 25922, 24 h.
Assay [9] concerns Bacillus subtilis. As to the kind of experiment: Antimicrobial activity against Bacillus subtilis ATCC […] at 100 ug/ml after 24 to 48 hr by agar diffusion method. The settings on record: read-out: DIZ.
Assay [10] relates to Nakaseomyces glabratus. In words: Antimicrobial activity against Candida glabrata ATCC 10233 at 100 ug/ml after 24 to 48 hr by agar diffusion method. The conditions noted are these: read-out: DIZ.
Assay [11] has as its system Escherichia coli. In words: Antimicrobial activity against Escherichia coli ATCC 25922 at 100 ug/ml after 24 to 48 hr by agar diffusion method. The conditions noted are these: read-out: DIZ.
Assay [12] relates to Staphylococcus aureus. In words: Antimicrobial activity against Staphylococcus aureus ATCC 29213 at 100 ug/ml after 24 to 48 hr by agar diffusion method. The settings on record: read-out: DIZ.
In assay [13] the test system is Candida albicans. As to the kind of experiment: Antimicrobial activity against Candida albicans ATCC 10231 at 100 ug/ml after 24 to 48 hr by agar diffusion method. The conditions noted are these: read-out: DIZ.
The test system of assay [14] is Candida albicans. In words: Antimicrobial activity against Candida albicans ATCC 10231 by broth dilution method.
The test system of assay [15] is Pseudomonas aeruginosa. In words: Antimicrobial activity against Pseudomonas aeruginosa ATCC […] at 100 ug/ml after 24 to 48 hr by agar diffusion method. The settings on record: read-out: DIZ.
Assay [16] concerns Nakaseomyces glabratus. In words: Antimicrobial activity against Candida glabrata ATCC 10233 by broth dilution method.

≈ marks a conversion by molar mass, not a printed value.

As for `CC1(C)S[C@@H]2[C@H](NC(=O)[C@H](N)c3ccc(O)cc3)C(=O)N2[C@H]1C(=O)O` [AMOXICILLIN], the minimum inhibitory concentration (MIC) (commonly the least concentration at which growth counts as inhibited) against Pseudomonas aeruginosa [1] turned out to be 6.25 µg/mL (≈ 17.1 µM); with Bacillus subtilis [3], 6.25 µg/mL (≈ 17.1 µM); against Staphylococcus aureus [4] it was 3.12 µg/mL (≈ 8.54 µM); against Escherichia coli [8] it was 3.12 µg/mL (≈ 8.54 µM). For the same compound, the MIC50 (as a rule, the lowest concentration that inhibits either 50% of growth or 50% of the strains tested, depending on the study) in the assay with Pseudomonas aeruginosa [1] was 3.2 µg/mL (≈ 8.76 µM); in the assay on Bacillus subtilis [3] it was 3.2 µg/mL (≈ 8.76 µM); in the assay on Staphylococcus aureus [4] it was 1.62 µg/mL (≈ 4.43 µM); with Escherichia coli [8] it was 1.6 µg/mL (≈ 4.38 µM). The zone of inhibition at 50 µg/mL in the assay with Pseudomonas aeruginosa [2] turned out to be 21 mm; with Bacillus subtilis [5] it was 25 mm; in the assay with Escherichia coli [6], 30 mm; in the assay with Staphylococcus aureus [7], 30 mm.

For `CCOc1c(/C=N\NC(=O)c2ccncc2)cccc1CN(c1ccccc1)c1ccccc1`, the zone of inhibition at 100 µg/mL was determined as 26 mm in the assay on Bacillus subtilis [9]; 22 mm in the assay with Nakaseomyces glabratus [10]; 32 mm in the assay on Escherichia coli [11]; 31 mm in the assay on Staphylococcus aureus [12]; 21 mm in the assay on Candida albicans [13]; 22 mm with Pseudomonas aeruginosa [15]. The minimum inhibitory concentration (MIC) against Pseudomonas aeruginosa [1] came out at 12.5 µg/mL (≈ 27.7 µM); in the assay with Candida albicans [14] it was 12.5 µg/mL (≈ 27.7 µM); in the assay on Bacillus subtilis [3], 12.5 µg/mL (≈ 27.7 µM); against Staphylococcus aureus [4] it was 6.25 µg/mL (≈ 13.9 µM); in the assay on Nakaseomyces glabratus [16] it was 12.5 µg/mL (≈ 27.7 µM); with Escherichia coli [8] it was 6.25 µg/mL (≈ 13.9 µM). Further, the MIC50 with Pseudomonas aeruginosa [1] came out at 6.4 µg/mL (≈ 14.2 µM); in the assay with Candida albicans [14] it was 6.4 µg/mL (≈ 14.2 µM); against Bacillus subtilis [3] it was 6.4 µg/mL (≈ 14.2 µM); against Staphylococcus aureus [4], 3.2 µg/mL (≈ 7.1 µM); against Nakaseomyces glabratus [16], 12.8 µg/mL (≈ 28.4 µM); against Escherichia coli [8], 3.2 µg/mL (≈ 7.1 µM). Moreover, the MFC – broadly, the smallest concentration meeting the test's criterion for killing the fungus – is 25 µg/mL (≈ 55.5 µM) with Candida albicans [14] and 50 µg/mL (≈ 111 µM) against Nakaseomyces glabratus [16].
